Consider one compound from publication PMC11275179, “Superior Anticancer and Antifungal Activities of New Sulfanyl-Substituted Niclosamide Derivatives” (Biomedicines, 2024).

The test system of test [1] is M. mycetomatis MM55 strain. In words: In vitro susceptibility testing (MTS), MM55 strain. The class given is cell-based, Madurella mycetomatis. The conditions noted are these: Madurella mycetomatis, MM55STRAIN. On the procedure: The antifungal activity of the compounds was tested against a geographically and genetically diverse set of M. mycetomatis isolates. These included the MM55 strain from Sudan, strains I1, I3, and […] from India, strain P1 from Mali, strain SO1 from Somalia, strain Peru72012 from Peru, and strain CBS247.48 whose country of origin was unknown. All isolates were originally obtained from patients and identified and maintained in the Erasmus Medical Centre, Rotterdam, The Netherlands. In vitro susceptibility testing was performed as reported previously. The only difference was that tetrazolium compound 3-(4,5-dimethylthiazol-2-yl)-5-(3-carboxymethoxyphenyl)-2-(4-sulfophenyl)-2H-tetrazolium salt (MTS) was used as a viability dye in endpoint reading instead of 2,3-bis-(2-methoxy-4-nitro-5-sulfophenyl)-2H-tetrazolium-5-carboxanilide salt (XTT).

For the next test, the system named is SK-GT-4 cells. In words: Spheroid formation assay. Format: cell-based. Conditions: 1.5 µM, SK-GT-4, 7 days. On the procedure:
In the ultra-low attachment plates (Corning, Lowell, MA, USA), 500 SK-GT-4 cells were seeded in each well with the spheroid media [DMEM medium supplemented with EGF (20 ng/mL), FGF (20 ng/mL), heparin (4 µg/mL), B27 (10 mL in 500 mL of 50×) (Invitrogen, Carlsbad, CA, USA), and antibiotic pen/strep (1%)]. After 24 h, spheroids were treated with 3a (IC50 dose) and an equivalent dose of niclosamide. Spheroids were counted after 7 days, and images were taken.

For the next test, the system named is FLO-1 EAC cells. In words: MTT proliferation assay, FLO-1 cells. Format: cell-based. The conditions noted are these: FLO-1, 72 h, read-out: Antiproliferative activity IC50, FLO-1. On the procedure: (§1) The FLO-1, SK-GT-4, and THP-1 cell lines were a gift from Dr. Shrikant Anant’s laboratory. Cells were grown in 10% fetal bovine serum (Fisher Scientific#FB12999102, Pittsburgh, PA, USA) and 1% antibiotic/antimycotic agent (Corning, Tewksbury, MA, USA) in RPMI 1640 media mixed with […] HEPES, L-glutamine (Corning, MA, USA). The cell lines were grown in a 5% CO2 incubator at 37 °C and used below 15 passages for the experiments.
(§2) The proliferation assay used a 3-(4,5-dimethylthiazol-2-yl)-2,5-diphenyltetrazolium bromide (MTT) assay. Briefly, 5000 FLO-1 and SK-GT-4 cells were counted and seeded in each well in 96-well plates. Post 24 h of incubation, EAC cells were treated with multiple concentrations (0–10 μM) of niclosamide (Cayman chemical#10649, Ann Arbor, MI, USA) and its analogs. At respective time points, 10 μL of stock MTT reagent (Millipore Sigma, Bedford, MA, USA) (3 mg/mL) was added to each well and incubated for 1–2 h under the dark at 37 °C. After incubation, the purple formazan crystals were dissolved in equal volumes of DMSO, and the absorbance of the resulting clear solutions was recorded at 570 nm using a microplate reader. A CCK-8 (Abcam, Cat no. ab228554, Burlingame, CA, USA) assay was used for the THP-1 cells. Briefly, 5000 cells were plated in every well of a 96-well plate. After 24 h of plating, THP-1 cells were treated with niclosamide and compound 3a. After the respective time point, an equal amount of CCK-8 reagent was pipetted to the wells and incubated for one hour in an incubator, and finally, the absorbance was recorded at 450 nm. The percent change in the proliferation was calculated by comparing the cell viability of the treated groups to the untreated control cells.

For the next test, the system named is STAT3. Briefly: Western blot, p-STAT3 and STAT3 in EAC cells. Format: cell-based. The conditions noted are these: SK-GT-4 1.5 µM and FLO-1 0.8 µM, 72 h. On the procedure:
(§3) A total of 500,000 FLO-1 and SK-GT-4 cells were seeded in 10 cm^2 dishes. After 24 h, cells were incubated with a vehicle, niclosamide analog 3a (IC50 concentration), and niclosamide (equivalent dose of 3a IC50 concentration). Then, 72 h post-treatment with the compounds, the media were removed to eliminate the dead/floating cells and washed with PBS. The cells were then scraped using a cell scraper in the lysis buffer containing a protease/phosphatase inhibitor cocktail (Thermo Scientific# A32959, Rockford, IL, USA). Further cells were lysed and sonicated using a probe sonicator (Fisher Scientific Model no FB120). The resulting lysates were centrifuged at 6500 rpm and 4 °C for 10 min. […] (Thermo Scientific, Rockford, IL, USA) method was used to estimate total protein levels in the prepared cell lysates, which were diluted with lysis buffer mixed with 2× Laemmli buffer (Biorad#1610737, Hercules, CA, USA) and boiled for 5 min at […]. Equal volumes of protein (50 μg) were used on the SDS-PAGE for separation using gel electrophoresis. […]

Test [2] has as its system SK-GT-4 and FLO-1 EAC cells. Briefly: Colony formation assay. The class given is cell-based. Conditions: 1.5 µM (SK-GT-4) and 0.8 µM (FLO-1); both EAC cell lines. On the procedure:
In total, 500 SK-GT-4 and FLO-1 cells were seeded in each well of 6-well plates before 24 h treatment of niclosamide analog 3a IC50 concentration and an equivalent dose of niclosamide. The media was changed after 72 h with drug-free media to remove drug exposure and allow them to grow and form colonies for 10–12 days. At the end of the experiment, the colonies were washed using PBS three times, fixed with 10% formalin solution (Fisher Scientific#23-305510, Pittsburgh, PA, USA), and stained using a 1% crystal violet (Sigma-Aldrich#C6158, St. Louis, MO, USA) solution in 10% ethanol for 15 min. The colonies were then washed with water, dried at room temperature, counted, and imaged. The number of colonies in the treated cells was compared with untreated cells.

In test [3] the test system is M. mycetomatis SO1 isolate. Details: method as in PMID 34209118. The conditions noted are these: read-out: IC50 against the Somalian SO1 isolate; cited from earlier work.
Another test has as its system β-catenin. Briefly: Western blot, active non-phospho-β-catenin in EAC cells. The conditions noted are these: SK-GT-4 1.5 µM and FLO-1 0.8 µM, 72 h. Format: cell-based. The method, then: as §3
The test system of the next test is SK-GT-4 EAC cells. In words: MTT proliferation assay, SK-GT-4 cells. Format: cell-based. The conditions noted are these: SKGT4, 72 h, read-out: Antiproliferative activity IC50, SK-GT-4. On the procedure: as §1, §2

As for `O=C(Nc1ccc([N+](=O)[O-])cc1Cl)c1cc(Cl)ccc1O` [Niclosamide], the IC50 in test [1] (read-out: Antifungal activity IC50) was 15 ± 1.6 µM; with FLO-1 EAC cells, 1.05 ± 0.28 µM; in test [3], 2.38 µM; in the test with SK-GT-4 EAC cells it was 1.77 ± 0.77 µM. In addition, the IC90 in test [1] (read-out: Antifungal activity IC90) worked out at 23.8 ± 0.1 µM. The “Inhibition of spheroid formation” value in the test with SK-GT-4 cells was “inhibit spheroid formation”. Moreover, the “Activating phosphorylation of STAT3 at TYR705 (Western blot)” value in the test with STAT3 is “inhibited activating STAT3 phosphorylation but not as strongly as 3a”. In addition, in test [2], the “Inhibition of colony formation” value is given as “slightly less efficient than 3a”. Further, the “Active (non-phosphorylated) β-catenin (Western blot)” value with β-catenin is “suppressed”.
